Measured values published in US20050244490A1, “Dosing methods for beta-D-2',3'-dideoxy-2',3'-didehydro-5-fluorocytidine antiviral therapy” (priority 2003, published 2005).

What was measured:
wild type HIV-RT = biological target: T1, wild type HIV-RT (Human immunodeficiency virus type 1 group M subtype B, UniProt P04585); experiment: Ki / Km for wild type HIV-RT; format: biochemical, HIV-1
T1 construct: The Ki value for β-D-D4FC-TP for wild type HIV-RT

[1] = test system: AZT/3TC-resistant HIV-1 recombinant viruses; experiment: microbe, parasite or virus in culture; format: cell-based; details: Human immunodeficiency virus 1, read-out: Average IC90 for AZT/3TC-R virus
Procedure: A panel of 22 viruses was constructed in the HXB2 background using the Protease and RT sequences from clinical isolates to determine Virco Profiling against recombinant clinical isolates (see FIGS. 7a and 7b). Viruses contained 2 to 17 mutations in RT frequently associated with nucleoside resistance, including: M184V, M41L, D67N, T215Y. IC50 values were determined using a high through-put reporter virus assay.

[2] = test system: acutely HIV-1 infected human PBM cells; experiment: Median effect / combination index study with Racivir; format: cell-based; details: Human immunodeficiency virus 1, PBMC, 120 h, Day 5, assays (1), (2), (3)
[3] = pbmc
[4] = human, in vivo
clinical = details: in vivo
[5] = Comparison to other nucleosides: plasma pharmacokinetics

Structure (SMILES): O=c1[nH]cnc2c1ncn2[C@H]1CC[C@@H](CO)O1 [DDI, 2′,3′-dideoxyinosine]
- Ki (wild type HIV-RT): 80 to 8000 nM
- IC90 [1]: 12600 nM
- EC50 ([2]; read-out: EC50): 380 nM
- EC90 ([2]; read-out: EC90): 2200 nM
- Intracellular half life [3]: 25 to 40 h
- Intracellular [Nuc-PPP] in patients [4]: <0.5 µM
- Cmax (clinical): 4.2 µM
- half-life [5]: 1.5 h
